In article PMC4854315, “Discovery of a novel allosteric inhibitor-binding site in ERK5: comparison with the canonical kinase hinge ATP-binding site” (Acta Crystallographica. Section D, Structural Biology, 2016):

Assays:
Test in all cases: Z'-LYTE kinase panel
Type in all cases: biochemical
[1] = target: T1, CAMK2A (CaMKII alpha) (Homo sapiens, UniProt Q9UQM7)
T1 construct: purchased ThermoFisher (SelectScreen, Z'-LYTE)
Procedure, shortened: (§1)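 A panel of 225 kinases is tested by Z′-LYTE under the standard protocol, with compounds at 10 µM and results given as percentage inhibition.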

[2] = target: T2, CAMK2B (CaMKII beta) (Homo sapiens, UniProt Q13554)
T2 construct: purchased ThermoFisher (SelectScreen, Z'-LYTE)
Procedure, shortened: as §1

[3] = target: T3, CLK2 (Homo sapiens, UniProt P49760)
T3 construct: purchased ThermoFisher (SelectScreen, Z'-LYTE)
Procedure, shortened: as §1

[4] = target: T4, CSNK1G2 (CK1 gamma 2) (Homo sapiens, UniProt P78368)
T4 construct: purchased ThermoFisher (SelectScreen, Z'-LYTE)
Procedure, shortened: as §1

[5] = target: T5, FGFR1 (Homo sapiens, UniProt P11362)
T5 construct: purchased ThermoFisher (SelectScreen, Z'-LYTE)
Procedure, shortened: as §1

[6] = target: T6, FGFR3 (Homo sapiens, UniProt P22607)
T6 construct: purchased ThermoFisher (SelectScreen, Z'-LYTE)
Procedure, shortened: as §1

[7] = target: T7, HIPK3 (YAK1) (Homo sapiens, UniProt Q9H422)
T7 construct: purchased ThermoFisher (SelectScreen, Z'-LYTE)
Procedure, shortened: as §1

[8] = target: T8, IGF1R (Homo sapiens, UniProt P08069)
T8 construct: purchased ThermoFisher (SelectScreen, Z'-LYTE)
Procedure, shortened: as §1

[9] = target: T9, INSR (Homo sapiens, UniProt P06213)
T9 construct: purchased ThermoFisher (SelectScreen, Z'-LYTE)
T9 sequence (P06213 28-1382): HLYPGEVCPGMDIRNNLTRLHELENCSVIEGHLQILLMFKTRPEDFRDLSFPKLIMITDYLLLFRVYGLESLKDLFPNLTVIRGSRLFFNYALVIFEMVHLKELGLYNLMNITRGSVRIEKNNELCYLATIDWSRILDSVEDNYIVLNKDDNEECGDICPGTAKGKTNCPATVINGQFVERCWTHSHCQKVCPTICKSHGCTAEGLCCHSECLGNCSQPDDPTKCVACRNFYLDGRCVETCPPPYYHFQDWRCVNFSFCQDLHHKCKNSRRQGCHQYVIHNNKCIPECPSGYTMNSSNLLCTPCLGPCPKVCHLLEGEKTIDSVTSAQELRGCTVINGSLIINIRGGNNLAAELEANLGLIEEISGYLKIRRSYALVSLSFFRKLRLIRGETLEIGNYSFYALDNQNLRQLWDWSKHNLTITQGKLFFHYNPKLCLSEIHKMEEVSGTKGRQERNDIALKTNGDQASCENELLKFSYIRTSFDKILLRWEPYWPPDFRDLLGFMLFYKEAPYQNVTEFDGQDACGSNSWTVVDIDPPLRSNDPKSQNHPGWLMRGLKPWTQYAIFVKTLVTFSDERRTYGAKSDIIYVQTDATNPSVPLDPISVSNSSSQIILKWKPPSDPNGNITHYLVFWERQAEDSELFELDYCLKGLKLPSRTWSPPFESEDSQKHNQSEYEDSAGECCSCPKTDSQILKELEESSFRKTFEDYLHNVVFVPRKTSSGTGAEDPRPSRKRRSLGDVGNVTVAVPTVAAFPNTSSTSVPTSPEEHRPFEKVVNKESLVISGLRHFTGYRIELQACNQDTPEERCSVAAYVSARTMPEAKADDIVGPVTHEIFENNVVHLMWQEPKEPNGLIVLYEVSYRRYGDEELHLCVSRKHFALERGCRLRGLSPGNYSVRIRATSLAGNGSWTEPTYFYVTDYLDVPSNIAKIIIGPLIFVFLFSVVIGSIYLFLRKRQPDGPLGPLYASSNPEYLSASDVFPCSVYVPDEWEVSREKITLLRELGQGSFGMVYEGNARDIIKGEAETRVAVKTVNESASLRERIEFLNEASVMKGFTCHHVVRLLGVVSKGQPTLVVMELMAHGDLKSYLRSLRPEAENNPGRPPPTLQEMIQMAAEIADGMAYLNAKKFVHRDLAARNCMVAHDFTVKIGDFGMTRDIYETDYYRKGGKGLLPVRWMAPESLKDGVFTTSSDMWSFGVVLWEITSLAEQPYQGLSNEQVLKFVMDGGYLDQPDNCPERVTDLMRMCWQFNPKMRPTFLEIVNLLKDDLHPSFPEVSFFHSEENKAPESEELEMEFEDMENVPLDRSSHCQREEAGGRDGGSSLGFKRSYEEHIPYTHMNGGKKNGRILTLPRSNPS
Procedure, shortened: as §1

[10] = target: T10, JAK2 (Homo sapiens, UniProt O60674)
T10 construct: purchased ThermoFisher (SelectScreen, Z'-LYTE)
T10 sequence (O60674 whole entry): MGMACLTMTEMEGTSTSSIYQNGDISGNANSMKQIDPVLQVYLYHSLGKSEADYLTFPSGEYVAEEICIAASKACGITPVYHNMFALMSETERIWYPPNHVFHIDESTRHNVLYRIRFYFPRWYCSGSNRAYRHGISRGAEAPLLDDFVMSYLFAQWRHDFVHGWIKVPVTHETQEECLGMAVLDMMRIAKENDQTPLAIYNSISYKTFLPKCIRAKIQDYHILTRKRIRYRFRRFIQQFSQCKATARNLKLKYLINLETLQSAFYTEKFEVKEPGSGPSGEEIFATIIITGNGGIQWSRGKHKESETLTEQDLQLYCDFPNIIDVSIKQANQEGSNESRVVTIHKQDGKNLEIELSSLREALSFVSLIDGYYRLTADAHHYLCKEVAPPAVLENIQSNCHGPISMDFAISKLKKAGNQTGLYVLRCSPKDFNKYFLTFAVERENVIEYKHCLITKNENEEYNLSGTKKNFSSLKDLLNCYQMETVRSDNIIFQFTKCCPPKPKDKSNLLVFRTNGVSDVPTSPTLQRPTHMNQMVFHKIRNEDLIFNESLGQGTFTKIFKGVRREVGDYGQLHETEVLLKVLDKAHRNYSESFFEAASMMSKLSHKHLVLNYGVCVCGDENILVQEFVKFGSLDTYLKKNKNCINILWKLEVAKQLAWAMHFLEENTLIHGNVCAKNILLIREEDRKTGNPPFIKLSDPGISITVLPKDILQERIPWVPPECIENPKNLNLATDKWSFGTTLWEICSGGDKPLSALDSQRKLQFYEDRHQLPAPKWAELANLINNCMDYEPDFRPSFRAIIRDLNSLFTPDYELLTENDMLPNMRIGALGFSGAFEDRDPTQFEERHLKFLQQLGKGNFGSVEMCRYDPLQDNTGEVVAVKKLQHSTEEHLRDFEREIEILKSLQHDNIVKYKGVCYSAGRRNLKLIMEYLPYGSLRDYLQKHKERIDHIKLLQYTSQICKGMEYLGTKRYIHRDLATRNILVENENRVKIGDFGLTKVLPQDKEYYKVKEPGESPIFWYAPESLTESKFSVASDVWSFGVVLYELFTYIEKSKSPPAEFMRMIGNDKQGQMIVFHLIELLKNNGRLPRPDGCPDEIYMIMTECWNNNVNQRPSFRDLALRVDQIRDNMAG
Procedure, shortened: as §1

[11] = target: T11, JAK2 JH1 JH2 (Homo sapiens, UniProt O60674)
T11 construct: JAK2 JH1 JH2; purchased ThermoFisher (SelectScreen, Z'-LYTE)
Procedure, shortened: as §1

[12] = target: T12, KIT (Homo sapiens, UniProt P10721)
T12 construct: purchased ThermoFisher (SelectScreen, Z'-LYTE)
Procedure, shortened: as §1

[13] = target: T13, LYN B (Homo sapiens, UniProt P07948)
T13 construct: purchased ThermoFisher (SelectScreen, Z'-LYTE)
T13 sequence (P07948 1-491 isoform P07948-2): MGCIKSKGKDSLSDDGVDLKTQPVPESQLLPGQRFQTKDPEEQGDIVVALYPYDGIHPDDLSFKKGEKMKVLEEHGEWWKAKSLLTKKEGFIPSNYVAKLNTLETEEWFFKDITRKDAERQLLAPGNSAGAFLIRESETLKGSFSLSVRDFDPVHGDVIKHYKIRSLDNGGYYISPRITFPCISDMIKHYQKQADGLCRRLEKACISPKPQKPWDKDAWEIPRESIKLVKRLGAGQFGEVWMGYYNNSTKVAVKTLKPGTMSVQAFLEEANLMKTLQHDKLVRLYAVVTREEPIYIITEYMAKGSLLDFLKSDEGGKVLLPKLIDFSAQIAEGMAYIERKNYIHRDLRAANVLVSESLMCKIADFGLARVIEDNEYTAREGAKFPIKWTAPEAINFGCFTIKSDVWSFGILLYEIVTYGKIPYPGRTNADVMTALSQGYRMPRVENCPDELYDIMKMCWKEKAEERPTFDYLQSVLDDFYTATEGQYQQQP
Procedure, shortened: as §1

[14] = target: T14, MKNK1 (MNK1) (Homo sapiens, UniProt Q9BUB5)
T14 construct: purchased ThermoFisher (SelectScreen, Z'-LYTE)
Procedure, shortened: as §1

[15] = target: T15, PAK2 (PAK65) (Homo sapiens, UniProt Q13177)
T15 construct: purchased ThermoFisher (SelectScreen, Z'-LYTE)
Procedure, shortened: as §1

[16] = target: T16, PAK6 (Homo sapiens, UniProt Q9NQU5)
T16 construct: purchased ThermoFisher (SelectScreen, Z'-LYTE)
T16 sequence (Q9NQU5 whole entry): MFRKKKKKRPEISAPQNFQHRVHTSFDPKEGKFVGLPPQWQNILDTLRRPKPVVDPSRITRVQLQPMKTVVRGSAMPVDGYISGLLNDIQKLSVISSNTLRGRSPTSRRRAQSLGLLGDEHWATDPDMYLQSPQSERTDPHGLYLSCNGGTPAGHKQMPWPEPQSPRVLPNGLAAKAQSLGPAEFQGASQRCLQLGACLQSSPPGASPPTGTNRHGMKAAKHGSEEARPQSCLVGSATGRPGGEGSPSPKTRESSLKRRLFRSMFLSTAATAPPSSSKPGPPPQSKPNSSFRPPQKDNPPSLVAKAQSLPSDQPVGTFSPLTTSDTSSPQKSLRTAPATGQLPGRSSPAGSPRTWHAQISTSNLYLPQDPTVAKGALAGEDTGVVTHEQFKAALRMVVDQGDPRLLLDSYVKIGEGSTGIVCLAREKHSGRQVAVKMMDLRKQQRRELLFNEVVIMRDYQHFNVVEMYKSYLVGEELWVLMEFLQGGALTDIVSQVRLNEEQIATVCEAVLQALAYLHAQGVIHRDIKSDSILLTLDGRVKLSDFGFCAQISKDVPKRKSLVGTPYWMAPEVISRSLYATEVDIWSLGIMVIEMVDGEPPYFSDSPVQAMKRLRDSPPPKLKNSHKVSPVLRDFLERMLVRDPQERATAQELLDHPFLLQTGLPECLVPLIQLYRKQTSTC
Procedure, shortened: as §1

[17] = target: T17, PDK1 (Homo sapiens, UniProt O15530); details: 10 µM compound; ATP 100
T17 construct: purchased ThermoFisher (SelectScreen, Z'-LYTE)
T17 sequence (O15530 1-556): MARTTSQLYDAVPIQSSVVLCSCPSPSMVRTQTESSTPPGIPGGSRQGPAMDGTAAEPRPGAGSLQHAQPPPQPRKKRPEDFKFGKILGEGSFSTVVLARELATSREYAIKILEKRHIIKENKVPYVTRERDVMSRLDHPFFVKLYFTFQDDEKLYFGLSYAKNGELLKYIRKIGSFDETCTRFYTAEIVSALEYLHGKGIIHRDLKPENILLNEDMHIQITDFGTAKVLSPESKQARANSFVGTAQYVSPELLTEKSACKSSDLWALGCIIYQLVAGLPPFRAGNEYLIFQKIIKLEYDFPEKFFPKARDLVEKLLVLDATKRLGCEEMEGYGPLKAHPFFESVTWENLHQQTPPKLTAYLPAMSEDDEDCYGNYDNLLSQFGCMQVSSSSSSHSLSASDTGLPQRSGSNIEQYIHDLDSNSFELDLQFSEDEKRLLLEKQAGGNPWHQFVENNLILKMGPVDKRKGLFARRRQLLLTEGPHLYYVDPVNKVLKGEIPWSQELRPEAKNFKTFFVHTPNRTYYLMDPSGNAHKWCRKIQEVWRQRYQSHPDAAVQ
Procedure, shortened: as §1

[18] = target: T18, PLK2 (Homo sapiens, UniProt Q9NYY3)
T18 construct: purchased ThermoFisher (SelectScreen, Z'-LYTE)
T18 sequence (Q9NYY3 whole entry): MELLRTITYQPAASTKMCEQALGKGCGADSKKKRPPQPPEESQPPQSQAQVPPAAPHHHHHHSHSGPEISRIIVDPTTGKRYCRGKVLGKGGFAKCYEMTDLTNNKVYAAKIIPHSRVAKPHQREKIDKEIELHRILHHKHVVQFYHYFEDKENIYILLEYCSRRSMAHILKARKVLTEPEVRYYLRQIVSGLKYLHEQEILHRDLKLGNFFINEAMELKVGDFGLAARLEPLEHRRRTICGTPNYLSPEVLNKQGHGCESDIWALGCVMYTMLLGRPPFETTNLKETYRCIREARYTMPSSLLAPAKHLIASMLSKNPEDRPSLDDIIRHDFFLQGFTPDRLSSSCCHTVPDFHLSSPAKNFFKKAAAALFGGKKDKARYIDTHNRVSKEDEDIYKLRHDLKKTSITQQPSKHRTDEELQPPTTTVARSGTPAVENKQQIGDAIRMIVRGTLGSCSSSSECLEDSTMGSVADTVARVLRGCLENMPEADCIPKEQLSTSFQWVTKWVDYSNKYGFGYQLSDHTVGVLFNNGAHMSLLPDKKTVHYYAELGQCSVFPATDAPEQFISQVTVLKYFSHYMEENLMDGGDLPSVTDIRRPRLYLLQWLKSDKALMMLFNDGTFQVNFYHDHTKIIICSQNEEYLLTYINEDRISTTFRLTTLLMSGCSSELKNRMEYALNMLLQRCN
Procedure, shortened: as §1

[19] = target: T19, PLK3 (Homo sapiens, UniProt Q9H4B4)
T19 construct: purchased ThermoFisher (SelectScreen, Z'-LYTE)
Procedure, shortened: as §1

[20] = target: T20, PRKACA (PKA) (Homo sapiens, UniProt P17612)
T20 construct: purchased ThermoFisher (SelectScreen, Z'-LYTE)
Procedure, shortened: as §1

[21] = target: T21, PRKCG (PKC gamma) (Homo sapiens, UniProt P05129)
T21 construct: purchased ThermoFisher (SelectScreen, Z'-LYTE)
Procedure, shortened: as §1

[22] = target: T22, RPS6KA5 (MSK1) (Homo sapiens, UniProt O75582)
T22 construct: purchased ThermoFisher (SelectScreen, Z'-LYTE)
Procedure, shortened: as §1

[23] = target: T23, RPS6KA6 (RSK4) (Homo sapiens, UniProt Q9UK32)
T23 construct: purchased ThermoFisher (SelectScreen, Z'-LYTE)
Procedure, shortened: as §1

[24] = target: T24, RPS6KB1 (p70S6K) (Homo sapiens, UniProt P23443)
T24 construct: purchased ThermoFisher (SelectScreen, Z'-LYTE)
Procedure, shortened: as §1

[25] = target: T25, SNF1LK2 (Homo sapiens, UniProt Q9H0K1)
T25 construct: purchased ThermoFisher (SelectScreen, Z'-LYTE)
Procedure, shortened: as §1

[26] = target: T26, STK23 (MSSK1) (Homo sapiens, UniProt Q9UPE1)
T26 construct: purchased ThermoFisher (SelectScreen, Z'-LYTE)
Procedure, shortened: as §1

[27] = target: T27, STK4 (MST1) (Homo sapiens, UniProt Q13043)
T27 construct: purchased ThermoFisher (SelectScreen, Z'-LYTE)
T27 sequence (Q13043 1-487): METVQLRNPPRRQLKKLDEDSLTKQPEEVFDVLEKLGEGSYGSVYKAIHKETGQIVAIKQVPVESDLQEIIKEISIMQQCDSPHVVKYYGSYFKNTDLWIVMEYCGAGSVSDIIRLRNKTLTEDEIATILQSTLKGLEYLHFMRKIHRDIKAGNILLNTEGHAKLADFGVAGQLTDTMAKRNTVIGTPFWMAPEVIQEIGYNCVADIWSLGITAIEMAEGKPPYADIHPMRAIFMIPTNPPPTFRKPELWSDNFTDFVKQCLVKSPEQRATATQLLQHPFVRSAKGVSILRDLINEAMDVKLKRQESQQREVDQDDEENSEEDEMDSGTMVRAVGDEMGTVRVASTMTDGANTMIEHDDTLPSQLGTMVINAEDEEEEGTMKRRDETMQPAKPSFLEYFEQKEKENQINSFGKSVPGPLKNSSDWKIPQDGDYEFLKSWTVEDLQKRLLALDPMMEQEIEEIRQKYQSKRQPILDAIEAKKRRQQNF
Procedure, shortened: as §1

Cc1cc(Nc2nc(N)nn2C(=O)NC(C)C)ccc1Cl [Compound 5]
inhibition at 10 µM [1]: -10%
inhibition at 10 µM [2]: -2.29%
inhibition at 10 µM [3]: 39%
inhibition at 10 µM [4]: 10%
inhibition at 10 µM [5]: 17%
inhibition at 10 µM [6]: 13%
inhibition at 10 µM [7]: 6.56%
inhibition at 10 µM [8]: -0.717%
inhibition at 10 µM [9]: 5.44%
inhibition at 10 µM [10]: 66%
inhibition at 10 µM [11]: 25%
inhibition at 10 µM [12]: 11%
inhibition at 10 µM [13]: 35%
inhibition at 10 µM [14]: 7%
inhibition at 10 µM [15]: -1.24%
inhibition at 10 µM [16]: 14%
inhibition at 10 µM [17]: 8%
inhibition at 10 µM [18]: 63%
inhibition at 10 µM [19]: 18%
inhibition at 10 µM [20]: 1.5%
inhibition at 10 µM [21]: 10%
inhibition at 10 µM [22]: 6.35%
inhibition at 10 µM [23]: 58%
inhibition at 10 µM [24]: 7%
inhibition at 10 µM [25]: 74%
inhibition at 10 µM [26]: -2.48%
inhibition at 10 µM [27]: 65%

Cc1ncc(-c2nc(Nc3ccc(C(=O)NCCN4CCCCC4)cc3)ncc2F)n1C(C)C [Compound 3]
inhibition at 10 µM [1]: 89%
inhibition at 10 µM [2]: 70%
inhibition at 10 µM [3]: 92%
inhibition at 10 µM [4]: 93%
inhibition at 10 µM [5]: 73%
inhibition at 10 µM [6]: 54%
inhibition at 10 µM [7]: 88%
inhibition at 10 µM [8]: 67%
inhibition at 10 µM [9]: 69%
inhibition at 10 µM [10]: 92%
inhibition at 10 µM [11]: 76%
inhibition at 10 µM [12]: 31%
inhibition at 10 µM [13]: 91%
inhibition at 10 µM [14]: 68%
inhibition at 10 µM [15]: 54%
inhibition at 10 µM [16]: 27%
inhibition at 10 µM [17]: 50%
inhibition at 10 µM [18]: 48%
inhibition at 10 µM [19]: 73%
inhibition at 10 µM [20]: 74%
inhibition at 10 µM [21]: 89%
inhibition at 10 µM [22]: 86%
inhibition at 10 µM [23]: 82%
inhibition at 10 µM [24]: 87%
inhibition at 10 µM [25]: 88%
inhibition at 10 µM [26]: 15%
inhibition at 10 µM [27]: 82%

XMD8-92 [Compound 2, reference compound]
CAMK2A (CaMKII alpha) % Inhibition ([1]; 10 µM compound, ATP Km app): 59%
CAMK2B (CaMKII beta) % Inhibition ([2]; 10 µM compound, ATP Km app): 70%
CLK2 % Inhibition ([3]; 10 µM compound, ATP Km app): 6%
CSNK1G2 (CK1 gamma 2) % Inhibition ([4]; 10 µM compound, ATP Km app): 11%
FGFR1 % Inhibition ([5]; 10 µM compound, ATP Km app): 8%
FGFR3 % Inhibition ([6]; 10 µM compound, ATP Km app): 9%
HIPK3 (YAK1) % Inhibition ([7]; 10 µM compound, ATP Km app): 1.8%
IGF1R % Inhibition ([8]; 10 µM compound, ATP Km app): -1.87%
INSR % Inhibition ([9]; 10 µM compound, ATP Km app): 4%
JAK2 % Inhibition ([10]; 10 µM compound, ATP Km app): 95%
JAK2 JH1 JH2 % Inhibition ([11]; 10 µM compound, ATP Km app): 52%
KIT % Inhibition ([12]; 10 µM compound, ATP Km app): -5.51%
LYN B % Inhibition ([13]; 10 µM compound, ATP Km app): 39%
MKNK1 (MNK1) % Inhibition ([14]; 10 µM compound, ATP Km app): 3.65%
PAK2 (PAK65) % Inhibition ([15]; 10 µM compound, ATP Km app): 12%
PAK6 % Inhibition ([16]; 10 µM compound, ATP Km app): 33%
PDK1 % Inhibition [17]: 21%
PLK2 % Inhibition ([18]; 10 µM compound, ATP Km app): 12%
PLK3 % Inhibition ([19]; 10 µM compound, ATP Km app): 99%
PRKACA (PKA) % Inhibition ([20]; 10 µM compound, ATP Km app): 56%
PRKCG (PKC gamma) % Inhibition ([21]; 10 µM compound, ATP Km app): 62%
RPS6KA5 (MSK1) % Inhibition ([22]; 10 µM compound, ATP Km app): 47%
RPS6KA6 (RSK4) % Inhibition ([23]; 10 µM compound, ATP Km app): 72%
RPS6KB1 (p70S6K) % Inhibition ([24]; 10 µM compound, ATP Km app): 5%
SNF1LK2 % Inhibition ([25]; 10 µM compound, ATP Km app): 62%
STK23 (MSSK1) % Inhibition ([26]; 10 µM compound, ATP Km app): 15%
STK4 (MST1) % Inhibition ([27]; 10 µM compound, ATP Km app): 6%
